{"source": "patent US7365077B2", "about": "“Piperazine bis-amide derivatives and their use as antagonists of the orexin receptor” (SmithKline Beecham p.l.c., priority 2001, dated 2008)", "origin": "cited, not measured here", "key": {"[1]": {"tested_on": "freely-feeding rats", "settings": "central administration, 4 hour time period"}, "[2]": {"tested_on": "orexin receptors", "settings": "central administration at the onset of the normal sleep period, rat"}}, "note": "No end group written: not given here."}
{"substance": "orexin-A: Peptide ligand (agonist) of the orexin receptors; human sequence given in b87 (QPLPDCCRQKTCSCRLYELLHGAGNHAAGILTL; ends and bridges not checked; cysteine pairing not given here; UniProt O43612 34-66, looked up)", "values": [{"measurement": "increase in food intake over control rats receiving vehicle", "setting": "[1]", "result": "approximately four-fold"}, {"measurement": "effect on arousal", "setting": "[2]", "result": "dose-related increase in arousal"}]}
